Square brackets hold non-standard residues; d marks the D form. Ends that are not written are not given here. Peptide text beside a SMILES is read from it.
Assays:
myotoxin II [1] = target: T1, myotoxin II (Bothrops asper, UniProt P24605)
myotoxin II [2] = target: T1, myotoxin II; type: binding
[3] = Fluorescence polarization test for self-assembly or aggregation; type: physicochemical; conditions: absence of Myotoxin-II

T1 sequence (P24605 17-137 limits assumed): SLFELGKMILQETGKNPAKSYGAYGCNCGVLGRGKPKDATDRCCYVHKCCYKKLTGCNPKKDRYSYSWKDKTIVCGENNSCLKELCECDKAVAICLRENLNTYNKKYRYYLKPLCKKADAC

Molecule | Cytotoxicity of Myotoxin II in presence of peptide (LDH release) (myotoxin II [1]) | ELISA signal at different dilutions, myotoxin II coated versus uncoated wells (myotoxin II [2]) | ELISA signal, myotoxin II coated wells versus uncoated control (myotoxin II [2]) | Signal intensity and signal to noise ratio in cross reactivity ELISA (myotoxin II [2]) | Self-assembling or aggregating ability (artificial increase of FP signal of TAMRA-probe) [3]
CC(C)[C@H](NC(=O)[C@H](Cc1c[nH]c2ccccc12)NC(=O)[C@H](Cc1c[nH]cn1)NC(=O)[C@@H](N)CC(=O)O)C(=O)N[C@@H](Cc1c[nH]c2ccccc12)C(=O)NCC(=O)N[C@@H](Cc1c[nH]c2ccccc12)C(=O)N[C@@H](CC(N)=O)C(=O)N[C@@H](Cc1ccc(O)cc1)C(=O)N[C@@H](CCC(N)=O)C(=O)N[C@@H](Cc1ccc(O)cc1)C(=O)N[C@@H](CCC(N)=O)C(=O)N1CCC[C@H]1C(=O)N[C@@H](CCC(N)=O)C(=O)N[C@@H](CCC(=O)O)C(=O)N[C@@H](Cc1c[nH]c2ccccc12)C(=O)N[C@@H](Cc1c[nH]cn1)C(=O)N[C@H](C(=O)N[C@@H](CCC(=O)O)C(=O)N[C@@H](CO)C(=O)O)[C@@H](C)O [Clone 1.9] (H-DHWVWGWNYQYQPQEWHTES-OH) | 4% | – | – | – | –
DYDRIPDIPMLGGGG [Clone 1.4] | – | low difference for the dilutions of 1/100 and 1/1000 | greatest difference between toxin coated wells and control | – | –
NGYWSSQQYMQQAPMPWRIP [Clone 4.10] | – | highest signals and also the highest signal to noise ratio in all of the dilutions | greatest difference between toxin coated wells and control | highest signal intensity and the best signal to noise ratio | –
QSVTMGPGLITHSPIHTQSK [Clone 1.2] | – | low difference for the dilutions of 1/100 and 1/1000 | greatest difference between toxin coated wells and control | – | –
SWEPYANPTRYKFHDW [Clone 1.8] | – | low difference for the dilutions of 1/100 and 1/1000 | greatest difference between toxin coated wells and control | – | –
VNRMLELKIMDYGGG [Clone 1.1] | – | low difference for the dilutions of 1/100 and 1/1000 | greatest difference between toxin coated wells and control | – | –
Y11D-Y (DHWVWGWNYQ[dY]QPQEWHTES) [Clone Y11D-Y] | – | – | – | – | did not artificially increase the FP signal
